Experimental data published in the supplement of paper PMC11208160.

assay: recombinant barcode read abundance after kanamycin selection (control-corrected) (log10(CPM+1)); higher = more efficient recombination; sequences stand for … in AGTGCAGAGAAAATCGGCCAGTTTTCTCTGCCTGCAGTCCGCATGCCGT…AGATTTATGCAGCGGACTGCCTTTCTCCCAAAGTGATAAACCGGACAGTATCATGGACCGGTTTTCCCGGTAATCCGTATTTGCAAGGTTGGTTTCACT; site = the 11-nt target
Experimental: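 Pooled E. coli target-specificity screen for the IS621 bridge recombinase. Each library plasmid pairs an 11-nt target (CT core) with a bridge RNA whose target-binding loop (9-nt LTG + 4-nt RTG) is reprogrammed; the rest of the 177-nt WT IS621 bridge RNA scaffold is fixed. The plasmid is co-electroporated with a WT donor plasmid; recombinase is induced with 0.1 mM IPTG and recombinants are selected on kanamycin. Recombinant barcodes are sequenced, converted to CPM, averaged over two biological replicates and corrected by the unselected control CPM. Molecule = full bridge RNA written as DNA: LTG = specificity nt 1-9, RTG = reverse complement of specificity nt 8-11, in the WT scaffold.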
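Also: IS621 recombinase and bridge RNA in Escherichia coli cells.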

Sequence | recombinant barcode read abundance (log10)
AACTTATCTTGGGTTCTAACCTGTTGCCT (site AACTGATCTAG) | 0.0896
AACTTATCTTGGGTTCTAACCTGTTGCCT (site AACTTATCTAG) | 0.812
AACTTCACTTGGGTTCTAACCTGTTGCCT (site AACTTCACTAG) | 1.12
AACTTCACTTGGGTTCTAACCTGTTGCCT (site AACTTCCCTAG) | 0.013
AACTTCACTTGGGTTCTAACCTGTTGCCT (site AACTTCGCTAG) | 0.364
AACTTCACTTGGGTTCTAACCTGTTGCCT (site AACTTCTCTAG) | 0.0193
AACTTTCCTTGGGTTCTAACCTGTTGCAT (site AACTATCCTAT) | 0.0732
AACTTTCCTTGGGTTCTAACCTGTTGCAT (site AACTCTCCTAT) | 0.465
AACTTTCCTTGGGTTCTAACCTGTTGCAT (site AACTGTCCTAT) | 0.0344
AACTTTCCTTGGGTTCTAACCTGTTGCAT (site AACTTTCCTAT) | 0.259
AAGAAGCCTTGGGTTCTAACCTGTTGCCT (site AAGAAGCCTAG) | 2.01
AAGAAGCCTTGGGTTCTAACCTGTTGCCT (site CAGAAGCCTAG) | 0.717
AAGAAGCCTTGGGTTCTAACCTGTTGCCT (site GAGAAGCCTAG) | 0.14
AAGAAGCCTTGGGTTCTAACCTGTTGCCT (site TAGAAGCCTAG) | 0.337
AAGAATACTTGGGTTCTAACCTGTTGCCT (site AAGAATACTAG) | 1.16
AAGAATACTTGGGTTCTAACCTGTTGCCT (site GAGAATACTAC) | 0.011
AAGACATCTTGGGTTCTAACCTGTTGCTT (site AAGACATCTAA) | 1.19
AAGACATCTTGGGTTCTAACCTGTTGCTT (site TAGACATCTAT) | 0.24
AAGAGTCCTTGGGTTCTAACCTGTTGCGT (site AAAAGTCCTAG) | 0.423
AAGAGTCCTTGGGTTCTAACCTGTTGCGT (site AAGAGTCCTAC) | 2.55
AAGATACCTTGGGTTCTAACCTGTTGCTT (site AAGATACCTAA) | 1.29

Sequence | recombinant barcode read abundance (log10)
AAGATACCTTGGGTTCTAACCTGTTGCTT (site AAGATACCTCA) | 0.36
AAGATGTCTTGGGTTCTAACCTGTTGCTG (site AAGATGTCTCA) | 1.74
AAGATGTCTTGGGTTCTAACCTGTTGCTG (site TAGAAGTCTCA) | 0.0558
AAGATTCCTTGGGTTCTAACCTGTTGCCT (site AAGATTCCTAG) | 0.575
AAGATTCCTTGGGTTCTAACCTGTTGCCT (site ACGATTCCTAG) | 0.0379
AAGATTCCTTGGGTTCTAACCTGTTGCCT (site AGGATTCCTAG) | 0.111
AAGATTCCTTGGGTTCTAACCTGTTGCCT (site ATGATTCCTAG) | 0.217
AAGCATGCTTGGGTTCTAACCTGTTGCTA (site AAGCATGCTTA) | 0.883
AAGCATGCTTGGGTTCTAACCTGTTGCTA (site CTCTTAACTCC) | 0.0074
AAGCCAACTTGGGTTCTAACCTGTTGCCT (site AAGCAAACTAG) | 0.294
AAGCCAACTTGGGTTCTAACCTGTTGCCT (site AAGCCAACTAG) | 1.19
AAGCCAACTTGGGTTCTAACCTGTTGCCT (site AAGCGAACTAG) | 0.181
AAGCCAACTTGGGTTCTAACCTGTTGCCT (site AAGCTAACTAG) | 0.172
AAGCCCTCTTGGGTTCTAACCTGTTGCTT (site AAGACCTCTAA) | 0.144
AAGCCCTCTTGGGTTCTAACCTGTTGCTT (site AAGCCCTCTAA) | 2.53
AAGCCCTCTTGGGTTCTAACCTGTTGCTT (site AAGGCCTCTAA) | 0
AAGCCCTCTTGGGTTCTAACCTGTTGCTT (site AAGTCCTCTAA) | 0.0167
AAGCCTTCTTGGGTTCTAACCTGTTGCTG (site AAGCCTTCTCA) | 1.68
AAGCCTTCTTGGGTTCTAACCTGTTGCTG (site GAGCCTTCTCT) | 0.236
AAGCGAACTTGGGTTCTAACCTGTTGCCT (site AAGCAAACTAG) | 0.274
AAGCGAACTTGGGTTCTAACCTGTTGCCT (site AAGCCAACTAG) | 0.238

Sequence | recombinant barcode read abundance (log10)
AAGCGAACTTGGGTTCTAACCTGTTGCCT (site AAGCGAACTAG) | 2.07
AAGCGAACTTGGGTTCTAACCTGTTGCCT (site AAGCTAACTAG) | 0.319
AAGCTAACTTGGGTTCTAACCTGTTGCCT (site AAGCAAACTAG) | 0.044
AAGCTAACTTGGGTTCTAACCTGTTGCCT (site AAGCCAACTAG) | 0.299
AAGCTAACTTGGGTTCTAACCTGTTGCCT (site AAGCGAACTAG) | 0.248
AAGCTAACTTGGGTTCTAACCTGTTGCCT (site AAGCTAACTAG) | 1.77
AAGGCCTCTTGGGTTCTAACCTGTTGCCA (site AAGGCCTCTAT) | 0.0333
AAGGCCTCTTGGGTTCTAACCTGTTGCCA (site AAGGCCTCTTG) | 1.88
AAGGCCTCTTGGGTTCTAACCTGTTGCTT (site AAGACCTCTAA) | 0.775
AAGGCCTCTTGGGTTCTAACCTGTTGCTT (site AAGCCCTCTAA) | 0.156
AAGGCCTCTTGGGTTCTAACCTGTTGCTT (site AAGGCCTCTAA) | 2.74
AAGGCCTCTTGGGTTCTAACCTGTTGCTT (site AAGTCCTCTAA) | 0.058
AAGGGCCCTTGGGTTCTAACCTGTTGCCT (site AAGGGCCCTAG) | 2.1
AAGGGCCCTTGGGTTCTAACCTGTTGCCT (site CAGGGCCCTAG) | 0.339
AAGGGCCCTTGGGTTCTAACCTGTTGCCT (site GAGGGCCCTAG) | 0.122
AAGGGCCCTTGGGTTCTAACCTGTTGCCT (site TAGGGCCCTAG) | 2.24
AAGGGCGCTTGGGTTCTAACCTGTTGCCT (site AAGGACGCTAG) | 0.618
AAGGGCGCTTGGGTTCTAACCTGTTGCCT (site AAGGCCGCTAG) | 0.238
AAGGGCGCTTGGGTTCTAACCTGTTGCCT (site AAGGGCGCTAG) | 1.49
AAGGGCGCTTGGGTTCTAACCTGTTGCCT (site AAGGTCGCTAG) | 0.261
AAGGGGCCTTGGGTTCTAACCTGTTGCCT (site AAGGGGCCTAG) | 1.8

Sequence | recombinant barcode read abundance (log10)
AAGGGGCCTTGGGTTCTAACCTGTTGCCT (site CGATCTACTCT) | 0.271
AAGGGGTCTTGGGTTCTAACCTGTTGCTT (site AAGGGGTCTAA) | 3.02
AAGGGGTCTTGGGTTCTAACCTGTTGCTT (site ATGGGGTCTAA) | 0.898
AAGGTCGCTTGGGTTCTAACCTGTTGCCT (site AAGGACGCTAG) | 0.33
AAGGTCGCTTGGGTTCTAACCTGTTGCCT (site AAGGCCGCTAG) | 1.14
AAGGTCGCTTGGGTTCTAACCTGTTGCCT (site AAGGGCGCTAG) | 0.347
AAGGTCGCTTGGGTTCTAACCTGTTGCCT (site AAGGTCGCTAG) | 2.45
AAGTATCCTTGGGTTCTAACCTGTTGCGG (site AAGTATCCTCC) | 2.02
AAGTATCCTTGGGTTCTAACCTGTTGCGG (site AGGGATCCTCC) | 0.349
AAGTATTCTTGGGTTCTAACCTGTTGCGT (site AAGTATTCTAC) | 2.23
AAGTATTCTTGGGTTCTAACCTGTTGCGT (site TAGTCTTCTAC) | 0.022
AAGTCCTCTTGGGTTCTAACCTGTTGCTG (site AAGTCCTCTCA) | 1.43
AAGTCCTCTTGGGTTCTAACCTGTTGCTG (site CTAAGGCCTAT) | 0.442
AAGTCCTCTTGGGTTCTAACCTGTTGCTT (site AAGACCTCTAA) | 0.0682
AAGTCCTCTTGGGTTCTAACCTGTTGCTT (site AAGCCCTCTAA) | 0.682
AAGTCCTCTTGGGTTCTAACCTGTTGCTT (site AAGGCCTCTAA) | 0.153
AAGTCCTCTTGGGTTCTAACCTGTTGCTT (site AAGTCCTCTAA) | 1.48
AAGTCGACTTGGGTTCTAACCTGTTGCCT (site AAGTCGACTAG) | 0.76
AAGTCGACTTGGGTTCTAACCTGTTGCCT (site AAGTGGACTAG) | 0.0428
